Test results taken from a melting point compilation (Tetko et al.; mined from patent text by program, amines drawn as free bases though some values may be those of a salt).

Work on `CCCC(=O)c1cc(C(=O)C(=O)OC(=O)C(=O)c2cc(C(=O)CCC)c(C)cc2NCC)c(NCC)cc1C` yielded a melting point of 141 to 143 °C. For `FC(F)(c1ccccc1)c1nc(-c2ccncc2)cs1`, the melting point was 54.5 to 55.5 °C. `COCc1nc(S)nc(O)c1OC` gave a melting point of 187 to 189 °C. For `C#Cc1cccc(OCC2=CC=C(CO)SS2)c1`, the melting point was 70.5 to 71.5 °C. In the case of `O=c1[nH]ncc2c1c(O)nc1ccccc12`, the melting point is reported as > 350 °C. `O=C(O)CC(C(=O)O)C(=O)O` showed a melting point of 157 to 159 °C. Compound `CS(=O)(=O)N1CCC(C(=O)Nc2ccccc2Oc2ccc(Cl)cc2Cl)CC1` has a melting point of 150 to 151 °C. In the case of `CNC(=O)Nc1snc(S(C)(=O)=O)c1C(N)=O`, the melting point is reported as 227 to 228 °C. With `N#CC=CC=CC(=O)C(F)(F)F` the melting point was 123 to 126 °C. `CON1C(C)(C)CC(CCCCNc2nc(N)nc(NCCCCC3CC(C)(C)N(OC)C(C)(C)C3)n2)CC1(C)C` showed a melting point of 163 to 165 °C. In the case of `COC(=O)c1ccc2cc(CCCCc3cc4ccc(C(=O)OC)cc4o3)oc2c1`, the melting point is reported as 130 to 131 °C. Work on `CC(=O)c1ccc(S(=O)(=O)Nc2ccc(F)cn2)cc1` yielded a melting point of 151 to 152 °C. Compound `CC(=O)Nc1ccc(CCC2CSC(=O)NN2)cc1` (stereo not drawn) has a melting point of 235 to 240 °C. In the case of `COC(=O)c1ccc(N2CCCC2CO)cc1N` (stereo not drawn), the melting point is reported as 113 to 115 °C. In the case of `CC(N)=CC(=O)C1CNC(C)S1(=O)=O` (stereo not drawn), the melting point is reported as 113 to 115 °C. `CC(C)c1cccc(C(C)C)c1NC(=O)CNC(c1ccccc1)c1cccc(C(=O)O)c1` (stereo not drawn) showed a melting point of 190 to 191 °C. Compound `Clc1ccc(Nc2nnc(Cc3ccncc3)c3cccnc23)cc1` has a melting point of 196 to 197 °C. Work on `CCCCCCCCCCCCCCCCOCC1=CCCO1` yielded a melting point of 30.5 to 31.5 °C. `Nc1ccc(S(=O)(=O)Nc2ccc(OP(N)(N)=O)cc2)cc1` showed a melting point of 174 to 175 °C. `S=C(S)CCc1ccccc1` gave a melting point of 57 to 59 °C. With `Cc1cc(O)c(C)c2sc(N)nc12` the melting point was 199 to 201 °C. `O=C1CCCC12CNc1ccc(Cl)cc12` (stereo not drawn) gave a melting point of 201 to 202 °C. With `Nc1nc2c([nH]c(=S)n2Cc2cccs2)c(=O)[nH]1` the melting point was > 280 °C. In the case of `CS(=O)(=O)Oc1ccccc1S(N)(=O)=O`, the melting point is reported as 131 to 132 °C. Compound `Cc1nc2c(cc1Cl)C(=O)N(C)CC(CCCl)O2` (stereo not drawn) has a melting point of 65 to 69 °C. Work on `CC1(C)OC[C@H](Cc2ccccc2)N1C(=O)C(=O)c1ccn(-c2ccc(-c3ccccc3)cc2)c1` yielded a melting point of 150 to 152 °C. With `COc1ccc(CN2N=C(c3ccc(OC)c(OC)c3)[C@@H]3CCCC[C@@H]3C2=O)cc1` (relative stereo) the melting point was 77 to 78 °C. In the case of `Oc1ccc2c(c1)CCN(c1ccc(Cl)cc1)C2`, the melting point is reported as 122 to 123 °C. For `Cc1ccccc1COCCCC(=O)O`, the melting point was 79 to 80 °C. Work on `C1=C(c2c[nH]c3ccccc23)CCN(CC2COc3ccc4c(c3O2)CCCO4)C1` (stereo not drawn) yielded a melting point of 186 to 187 °C. With `CCCCCCCCCCCCCCOc1ccc(OCc2ccccc2)c(C(=O)OC)c1` the melting point was 43 to 46 °C. For `Cn1c2c(c3cc(F)ccc31)C(=O)CCC2`, the melting point was 158 °C. For `C=CCN(C(=O)n1oc(C)c(Cl)c1=O)c1ccc(Cl)cc1Cl`, the melting point was 90.5 to 92 °C. `Cn1ccnc1-c1ccc(-c2cnc([C@H](Cc3ccccn3)N(C=O)OC(C)(C)C)n2C)cc1` showed a melting point of 160 to 163 °C. `CCOC(=O)C(CC(=O)c1ccc(Oc2ccc(Br)cc2)cc1)SC(C)=O` (stereo not drawn) showed a melting point of 67 to 68.5 °C. Compound `CCCC(C)(Sc1ccc(OCCn2c(CC)nc3ccccc3c2=O)cc1)C(=O)OCC` (stereo not drawn) has a melting point of 148 to 150 °C. Work on `CCCNC(=O)C(C)=Cc1ccc2c(c1)c(Cc1ccc(C(=O)NS(=O)(=O)c3ccccc3C)cc1OC)cn2CC(=O)N(C)C` yielded a melting point of 230 to 231 °C. `O=C(O)c1cccc(CC(Cn2ccnc2)c2ccc(F)cc2)c1` (stereo not drawn) gave a melting point of 125 to 130 °C. Compound `COC(=O)Cc1c(Cl)nc(C)nc1Nc1ccccc1` has a melting point of 115 to 116 °C. In the case of `CN1C(c2cccnc2)CC(=O)CC1c1cccnc1` (stereo not drawn), the melting point is reported as 103 to 106 °C. For `CCCCc1ccc(C(=O)Cc2ccc(Br)cc2)cc1`, the melting point was 129 to 131 °C. `CC1(C)CC(=O)C(c2c(Cl)cc(N)cc2Cl)C(=O)C1` gave a melting point of 243 °C. In the case of `CCC(Nc1ncnc2[nH]cnc12)c1oc2cccc(F)c2c(=O)c1-c1ccccc1` (stereo not drawn), the melting point is reported as 210 to 212 °C. `COc1cc(C(=O)CSCC2CCCCC2)c(OC)cc1Cl` showed a melting point of 51 to 53 °C. In the case of `CCOc1ccc(C(=O)NCc2ccc3c(c2)C(=O)N(C2CCC(=O)NC2=O)C3=O)nn1` (stereo not drawn), the melting point is reported as 238 to 240 °C. In the case of `O=C(Nc1ccc(OCc2ccncc2)c2ccccc12)c1cc(F)cc(OC2CCOCC2)c1`, the melting point is reported as 182 to 184 °C. `COC(=O)[C@@H]1[C@H](C(C)C)N1S(=O)(=O)c1ccc(C)cc1` (stereo partly drawn) showed a melting point of 52 to 54 °C. For `CCOC(=O)NNc1cccc(Cl)n1`, the melting point was 139 to 141 °C. Compound `N#Cc1csc(-c2csc(C(O)(Cn3cncn3)c3ccc(F)cc3F)c2)n1` (stereo not drawn) has a melting point of 172 to 173 °C. In the case of `COc1ccc(OC)c(CCc2ccc3ncn(C)c(=O)c3c2)c1`, the melting point is reported as 83 to 85 °C. Compound `CNC(=O)N(C)C1=NN(C(C)=O)C(C)(C)S1` has a melting point of 151 to 154 °C. For `CNc1nc(-c2ccc(-c3ccccc3)s2)c2cc(OC)c(OC)cc2n1`, the melting point was 201 to 203 °C. Compound `CCCc1c(OCCCCCCc2ccc3cc(O)c(O)cc3c2)ccc(C(=O)O)c1O` has a melting point of 154 to 158 °C. With `COCc1c(C(=O)c2ccccc2)ncc2[nH]c3ccc(Oc4nccc5ccccc45)cc3c12` the melting point was 159 to 160 °C. Work on `COc1cc(CCCC2OC(=O)NC2=O)ccc1OCc1coc(CCc2ccccc2)n1` (stereo not drawn) yielded a melting point of 122 to 123 °C. With `CC(C)c1ccc(S(=O)(=O)c2ccccc2)cc1S(=O)(=O)NC1CCN(C(=O)c2ccc(C(C)(C)C)cc2)CC1` the melting point was 150 to 152 °C. Compound `CC(C)=CCCC(C)=CCCC(C)=Cc1ccc(C(=O)O)cc1` has a melting point of 92 to 92.5 °C. Work on `COc1ccc(CCc2nnc(-c3ccc4[nH]ncc4c3)o2)cc1C(F)(F)F` yielded a melting point of 192 to 193 °C. `COc1ccc(C(=O)c2ccc(Br)cc2)c(C)c1F` showed a melting point of 93 to 95 °C. With `Cc1noc(NC(=O)N2CCN(c3nccc(-c4cc(F)ccc4F)n3)CC2)c1C` the melting point was 218 to 219 °C. Work on `CN(Cc1ccc(NC(=O)C2=Cc3cc(-c4ccsc4)ccc3OCC2)cc1)C1CCOCC1` yielded a melting point of 194 to 195 °C. `CC(C)Cc1ccc(CCc2cc3c(s2)NC(=O)C(c2ccccc2)N=C3c2ccccc2Cl)cc1` (stereo not drawn) gave a melting point of 201 to 203 °C. `Cc1nc(-c2cccnc2)sc1-c1ccnc(Nc2cc(Cl)c(N3CCOCC3)c(Cl)c2)n1` showed a melting point of 276 to 278 °C. `Fc1ccc(Nc2ncnc3cnc(NCC45CCN(CC4)CC5)nc23)cc1Cl` gave a melting point of 221 to 223 °C. `C#CCSc1cc(C(=O)O)cc(S(N)(=O)=O)c1Oc1ccccc1` gave a melting point of 197 to 198 °C. `CN(c1cccc2cc(-c3ncc(CCC(=O)O)s3)[nH]c12)S(=O)(=O)c1cccs1` gave a melting point of 234 to 235 °C. Work on `CCOc1c2c(c([N+](=O)[O-])c(OCC)c1OCC)C(=O)OC2` yielded a melting point of 82.5 to 84.5 °C. `O=c1c2c[nH]c3ccncc3c-2nn1-c1ccccc1` gave a melting point of 334 to 337 °C. `O=C(Nc1ccccc1S(=O)(=O)c1ccccc1)N[C@@H](Cc1ccc(Oc2nccc3cnccc23)cc1)C(=O)O` showed a melting point of 136 °C. `CCCCOC(=O)CCCCSc1cc(C)nc(N)n1` gave a melting point of 45 to 47 °C. `COC1CCC2C3CCC4CC(=O)C(Cl)CC4(C)C3CCC12C` (stereo not drawn) gave a melting point of 202 to 210 °C. In the case of `CCCCCNC1=CC(=O)C(=O)c2ccccc21`, the melting point is reported as > 215 °C. Compound `CCCCNC(=S)c1ccc2c(c1)N(C(C)CN(C)C)c1ccccc1S2` (racemic) has a melting point of 154 °C. With `CN(N(S(C)(=O)=O)S(C)(=O)=O)S(C)(=O)=O` the melting point was 123 to 124 °C. Compound `O=C(Oc1ccc(Cl)c2c(=O)c3ccccc3sc12)c1ccccc1` has a melting point of 177 to 178 °C. For `C=CCN(c1ccccc1)c1cc(C(N)=O)c(C(=O)O)cc1N(CC=C)c1ccccc1`, the melting point was 114 to 116 °C. With `COC(=O)N(C(C)C)C1C=C(C)CC=C1C(=O)c1ccc(F)cc1` (stereo not drawn) the melting point was 98 to 102 °C. Compound `CNC(=S)NCCSCc1[nH]cnc1C` has a melting point of 150 to 152 °C. In the case of `O=C1NCNCC1(c1ccccc1)c1ccccn1` (stereo not drawn), the melting point is reported as 201 to 203 °C. For `CCOC(=O)[C@H](Cc1ccc(-c2c(OC)cc(COS(C)(=O)=O)cc2OC)cc1)NC(=O)c1c(Cl)cccc1Cl`, the melting point was 109 °C. In the case of `CCC(=O)c1ccc2c(c1)C(C(=O)Nc1cccc(C(=O)Nc3ccccc3)c1)C(=O)N2CC` (stereo not drawn), the melting point is reported as 179 to 180 °C. In the case of `NC(=O)CC1Cc2cc(Br)cc3[nH]c(=O)c(=O)n1c23` (stereo not drawn), the melting point is reported as > 300 °C. With `CCOC(=O)C1=C(N)NC(c2ccccc2)=CC1c1cccc([N+](=O)[O-])c1` (stereo not drawn) the melting point was 171 to 172 °C. `CCOC(=O)c1oc2ccc(OC)cc2c1OCC` gave a melting point of 50 to 51 °C. `Nc1ncnc2c1ncn2C1OC(C(O)C(=O)OCc2ccccc2)C(O)C1O` (stereo not drawn) showed a melting point of 144 to 145 °C. With `Cc1ncccc1NC(=NC#N)NC(NC(=O)Cc1ccc(F)cc1)C(C)(C)C` (stereo not drawn) the melting point was 166 to 167 °C. In the case of `COc1ccc(OC)c(C=CCN2CCc3nc(N)sc3CC2)c1`, the melting point is reported as 112 to 115 °C. Work on `CN1c2cccc3cccc(c23)N(CCCN2CC=C(c3ccccc3)CC2)S1(=O)=O` yielded a melting point of 146 °C. In the case of `COCC1CC(c2ccc3ccccc3c2C#N)=NO1` (stereo not drawn), the melting point is reported as 110 to 111 °C. `CCCCCCCCCCCCCCCCC(CO)C(=O)O` (stereo not drawn) showed a melting point of 62 to 67 °C. In the case of `Fc1ccc(Cn2cnc3c(-c4ccco4)nc(Cl)nc32)cc1`, the melting point is reported as 152 to 155 °C. Work on `NS(=O)(=O)c1cc2cc(CBr)ccc2s1` yielded a melting point of 171 to 173 °C. `CCOC(=O)c1cnc2c(OC(F)F)c(F)ccc2c1O` gave a melting point of 218 to 219 °C. In the case of `COC(=O)c1ccc(Cn2ncc3ccc(NC(=O)OC4CCCC4)cc32)c(OC)c1`, the melting point is reported as 150 to 151 °C. With `O=C1C=c2c(c3c4ccccc4oc3c3[nH]c4ccccc4c23)=N1` the melting point was > 300 °C. `CN(C(=O)C(F)(F)F)N1CCc2ccccc2C(Oc2ccc(C(F)(F)F)cc2)C1` (stereo not drawn) gave a melting point of 210 to 212 °C. `COc1cc(OC)nc(C(C(=O)O)C(C)C)n1` (stereo not drawn) showed a melting point of 99 to 101 °C. With `COc1ccc2ncc3c(c2c1)C(O)CCC3` (stereo not drawn) the melting point was 190 °C. `CC1=C(C(=O)OCCOc2ccccc2)C(c2ccccc2C(F)(F)F)c2c(ccnc2OCC(C)C)N1` (stereo not drawn) showed a melting point of 108 to 109 °C. In the case of `Fc1cccc(Cn2cnnc2S)c1`, the melting point is reported as 124 to 125 °C. Compound `Cc1cc(C)n(-c2nc(Nc3ccccc3Cl)c3ccccc3n2)n1` has a melting point of 210 to 217 °C. `CCn1nc2c(N)nc3cnccc3c2c1CC(C)(C)O` showed a melting point of 277 to 279 °C. Compound `Cc1cc(C)c2nc(C3CC3)n(Cc3ccc(C4(C(=O)O)CC=CC4)s3)c2n1` has a melting point of 184 to 185 °C.
